The source of these data is patent US20110136880A1, “Latrunculin-Based Macrolides and Their Uses” (priority 2009, published 2011).

One assay addresses T1, pyrene-conjugated actin (Oryctolagus cuniculus, UniProt P68135).
T1 construct: purchased Cytoskeleton, Denver, Colo
Put plainly: Pyrene actin polymerization assay. The format is biochemical. The settings on record: for inhibition at 0.1 µM: 100 nM, read-out: Actin polymerization inhibition (%) 100 nM; for inhibition at 0.1 µM / inhibition at 1 µM: compared to vehicle control (DMSO); for inhibition at 1 µM: read-out: Actin polymerization inhibition (%) 1 μM; for IC50: mean ± SEM, triplicate. Here is the method:
An actin polymerization kit was used to assess the direct actin-binding activity of each analogue at two concentrations: 100 nM and 1 μM. This kit is based on the enhanced fluorescence of pyrene-conjugated actin that occurs during polymerization. When pyrene-G-actin (monomer) forms pyrene-F-actin, fluorescence is enhanced. The enhanced fluorescence is used to follow polymerization over time. Table 2 lists activities as the percentage of actin polymerization inhibition, compared to the negative vehicle control (DMSO), along with calculated IC50.
Pyrene-Actin Polymerization Assays. Actin polymerization assays were performed in accordance with the manufacturer's instructions (Cytoskeleton, Denver, Colo.). Briefly, […] final concentration of monomeric actin (1:10 pyrene labeled) was incubated on ice for 10 min with one of various concentrations of one of the latrunculin derivatives. Samples were then equilibrated 10 min in an ELISA plate reader (BioTek, VT), after which polymerization was induced by adding KCl, MgCl2, and ATP. Compounds 1-14 were tested at 0.1, 0.5, 1.0, and 10 μM. The IC50 for each compound was calculated using GraphPad Prism 5.0.
Pyrene-actin polymerization assays. Actin polymerization inhibitory activity is assessed using the Cytoskeleton Actin Polymerization kit (Cytoskeleton, Denver, Colo.). Briefly, […] (final concentration) of monomeric actin (1:10 pyrene labeled) is incubated on ice for 10 min with one of various concentrations of the test latrunculin compound. Samples are equilibrated 10 min in an ELISA plate reader (BioTek, VT), after which polymerization is induced by adding KCl, MgCl2, and ATP. Compounds are tested at 0.1, 0.5, 1.0, and 10 μM. The IC50 for each compound is calculated using GraphPad Prism 5.0.

For another assay, the system named is MCF7. In words: MTT proliferation assay, MCF7. The settings on record: for IC50: Homo sapiens, MCF7, MTT, 72 h, mean ± SEM, read-out: IC50 (μM) MCF7. The format is cell-based, human. From the text: The antiproliferative and anti-invasive activities of compounds 1-14 were quantified using MTT and cell invasion assay kits, respectively. Latrunculin A (compound 1) was used as a positive control in all biological assays, because it is known to be an actin polymerization inhibitor, with cytotoxic, antiproliferative, and anti-invasive activities. The 3-[4,5-dimethylthiazol-2-yl]-2,5-diphenyl tetrazolium bromide (MTT) assay selectively detects living cells in a quantitative, colorimetric fashion, based on a living cell's ability to reduce MTT to an insoluble, purple formazan dye. The MTT assay is routinely used to assess cytotoxicity and proliferation inhibition activities. The antiproliferative activities of compounds 1-14 were measured against two human mammary gland adenocarcinoma cell lines, MCF7 and MDA-MB-231, and against human prostate cancer cells PC-3 at five different doses (0.1, 0.5, 1, 10, and 50 μM). While many of the semisynthetic latrunculins had similar activity levels, some had greater activity than compound 1. […] Although the MDA-MB-231 cells were more resistant than MCF7 against most latrunculin derivatives tested, compound 14 had potent activity against both cell lines.
MTT Proliferation Assay. The growth of MCF7, MDA-MB-231, and PC-3 cancer cell lines was measured using an MTT kit (TACS™, TREVIGEN®, Inc.). Exponentially growing cells were plated in a 96-well plate at a density of 8×10^3 cells per well, and allowed to attach for 24 h. Complete growth medium was then replaced with 100 μL of RPMI serum-free medium containing various concentrations (50, 10, 1, 0.5, 0.1 μM) of the particular test compound. Culture continued at 37° C. under 5% CO2. After 72 h of culture, the cells were treated with MTT solution (10 μL/well) at 37° C. for 4 h. The color reaction was stopped by adding solubilization/stop solution (100 μL/well). Incubation continued at 37° C. continued to completely dissolve the formazan dye product. Absorbance of the samples was determined at 570 nm with an ELISA plate reader (BioTek, VT). The number of cells per well was calculated against a standard curve that had been prepared by plating various concentrations of cells, as determined by hemocytometer, at the start of each experiment. IC50 for each compound was calculated using a nonlinear regression curve fit of log concentration versus the number of cells/well, using GraphPad Prism 5.0 (GraphPad Software, La Jolla, Calif.).
A general note: Formazan colour is commonly taken as a measure of viable cells.

Assay [1] concerns microvessel density marker CD31 in endothelial colony forming cells (ECFCs). In words: Angiogenesis inhibition assay (CD31 in ECFCs). Format: cell-based. Here is the method:
Effects on Angiogenesis. Angiogenesis inhibition assays were conducted using endothelial colony forming cells (ECFCs). The microvessel density marker CD31 was quantified using confocal laser scanning microscopy and immunohistochemistry.

A further assay relates to HeLa cells. In words: HeLa cell G2/M assays. Format: cell-based. From the text:
This assay measures HeLa cell proliferation, apoptosis, DNA content and condensation, cyclin B, and phosphor-histone H3.

The structures appear in SMILES notation. Read-outs that look alike come from different tables or passages of the source. Bounds are passed on as bounds.

Take `COc1ccc(CC(=O)N2C(=O)SC[C@H]2[C@@]2(OC)C[C@H]3C[C@@H](CC[C@H](C)/C=C\C=C\CC/C(C)=C\C(=O)O3)O2)cc1` [Compound 11, 17-O-Methyl-N-(7′-methoxyphenylacetyl)latrunculin A]: on pyrene-conjugated actin, the inhibition (usually the percentage by which the read-out fell short of the control) at 0.1 µM was 0%; the inhibition at 1 µM was 13%; the IC50 (as a rule, the midpoint of a concentration-inhibition curve) was greater than 10000 nM. Also, the half-maximal inhibitory concentration (IC50) in the assay with MCF7 stood at 15.4 ± 1.21 µM. In assay [1], this molecule had an inhibition at 2 µM of 100% and an inhibition at 10 µM of 100%. The half-inhibitory concentration (IC50) in assay [1] (read-out: IC50 CD31 in ECFCs) is less than 43 nM. In addition, the “times greater inhibition against G2-M-phase HeLa cells compared to nocodazole” value in the assay on HeLa cells (various G2_M assays) is on record as 3.5-51.0 times.

As for `C/C1=C/C(=O)O[C@@H]2C[C@@H](CC[C@H](C)/C=C\C=C\CC1)O[C@@](O)([C@@H]1CSC(=O)N1CO)C2` [Compound 14, N-Hydroxymethyllatrunculin A], on pyrene-conjugated actin, the inhibition at 0.1 µM came out at 35%, the inhibition at 1 µM was 90% and the 50% inhibitory concentration (IC50) came to 210 ± 54 nM. Besides, the IC50 with MCF7 was 0.12 ± 0.01 µM. For the same molecule, the “factor of greater activity than compound 1, MCF7 proliferation assay” value in the assay with MCF7 (assessed at 1 μM) is reported as 4. For the same molecule, in the assay on MCF7 (relative to compound 1), the “fold increase in activity against MCF7 versus compound 1” value is on record as 4.0 fold. Besides, in assay [1], the inhibition at 2 µM turned out to be 100% and 10 µM produced 100% inhibition. Also, the IC50 in assay [1] (read-out: IC50 CD31 in ECFCs) amounted to 63 nM. In addition, in assay [1] (read-out: antiangiogenic activity IC50 range), the half-inhibitory concentration (IC50) was 40 to 820 nM. Also, the “dose range of strong growth inhibition of HeLa cells at early interphase” value in the assay with HeLa cells (flow cytometry) was in the range of 0.04 to 1.25 µM. Also, the “activity in G2_M assays compared with nocodazole” value in the assay with HeLa cells (less active than compound 11) is listed as “greater activity than did nocodazole”.
